Test results: US20260317324A1, “BIFUNCTIONAL COMPOUNDS FOR DEGRADING BRAF VIA UBIQUITIN PROTEOSOME PATHWAY” (Nurix Therapeutics, Inc., priority 2023, published 2026)

Biological target: T1, BRAF V600E (Homo sapiens, UniProt P15056, V600E)
T1 construct: endogenous C-terminal HiBiT fusion tag on BRAF V600E allele; endogenous in cells; host or cells: A375 clone 1F10 (CRISPR-Cas9 knock-in of the HiBiT tag; parental A375 from ATCC)
Assay: BRAF HiBiT degradation assay, C-terminal HiBiT-tagged BRAF V600E A375 cells (clone 1F10), Nano-Glo HiBiT Lytic assay
Type: cell-based
Conditions: for Dmax: A-375
Excerpt: An A375 cell line expressing a homozygous V600E mutation was purchased from ATCC (Manassas, VA, USA). An A375 clone 1F10 cell line with an endogenous C-terminal HiBiT fusion tag on BRAF V600E allele was generated internally using CRISPR-Cas9 technology and cultured in DMEM, high glucose supplemented with 10% FBS and 1× GlutaMAX. A HCT-116 BRAF−/− cell line overexpressing the C-terminal HiBiT-tagged G466V, G469A, and D594G mutants were generated by lentiviral transduction, externally at Biosettia Inc (San Diego, CA, USA). The stably transfected cells were cultured in RPMI media supplemented with 10% FBS, 1× GlutaMAX, and 0.25 μg/ml puromycin. DMEM medium, RPMI 1640 medium, GlutaMAX, fetal bovine serum (FBS), and puromycin were purchased from Gibco (Grand Island, NY, USA). HCT-116 BRAF−/− cells were purchased from Horizon Discovery (Waterbeach, UK).
The C-terminal HiBiT tagged BRAF A375 cells (monoclonal cell line, cell clone 1F10) were seeded at a density of 10,000 cells/well in 30 μL media (DMEM, high glucose supplemented with 10% FBS and 1× GlutaMAX) in white opaque 384-well plates (Corning #3570) from column 1 to column 23. The wildtype A375 cells were seeded in column 24 at the same cell density in 30 μL media. Cells were incubated at 37° C. with 5% CO2 for 24 h.
Intermediate compound dilution series (5-point, ranging from 5 mM to 0.5 μM, 10-fold dilutions in DMSO) were prepared in a source plate (Beckman Coulter cat. no. 001-16128). Final compound dilution series (11-point, ranging from 1 μM to 0.01 nM, half-log dilutions in DMSO) were stamped into the assay plate (Corning #3570, column 1-11 and 12-22) using the Echo Acoustic Liquid Handler (Beckman Coulter). Each compound was plated in duplicate, and the total volume of compound DMSO solution was 60 nL/well (0.2% final DMSO concentration). DMSO was included in wells A23-L23 and A24-L24. The DMSO-treated HiBiT-tagged samples served as Negative Control (NC) and the DMSO-treated wildtype samples served as Background Control (BC) for the HiBiT assay.
HiBiT signal was measured by a Nano-Glo HiBiT Lytic assay (Promega cat. no. N3050). HiBiT lytic detection reagent (Nano-Glo HiBiT Lytic Buffer with 1:50 Nano-Glo HiBiT Lytic Substrate and 1:100 LgBiT Protein, 40 μL) was added using Bravo. The mixture was incubated at room temperature, in the dark, and with gentle shaking for 10 min. Luminesce units (LU) were read on an EnVision plate reader 2105 (Perkin Elmer).
Percent protein remaining and viability remaining per sample were calculated as follows: […]
% Protein remaining values were plotted as a function of compound concentration. XC50 (DC50) values were determined by fitting curves using the following equation:
For the HiBiT degradation assay, the key parameters reported include: • The dose of compound that produces 50% degradation (DC50 at 50%): • DC50 at 50%: the Fitted X value (Conc.) at Y=50 (response) • Observed Dmax (Obs. Dmax) is the percentage protein degraded at maximal compound effect relative to DMSO-treated control: […]

[1] = A375 (BRAF V600E), DC50 at 50%: fitted conc. at Y=50
[2] = A375 (BRAF V600E), percentage protein degraded at maximal compound effect relative to DMSO

T1 sequence (P15056 whole entry V600E, the tested form may be a part): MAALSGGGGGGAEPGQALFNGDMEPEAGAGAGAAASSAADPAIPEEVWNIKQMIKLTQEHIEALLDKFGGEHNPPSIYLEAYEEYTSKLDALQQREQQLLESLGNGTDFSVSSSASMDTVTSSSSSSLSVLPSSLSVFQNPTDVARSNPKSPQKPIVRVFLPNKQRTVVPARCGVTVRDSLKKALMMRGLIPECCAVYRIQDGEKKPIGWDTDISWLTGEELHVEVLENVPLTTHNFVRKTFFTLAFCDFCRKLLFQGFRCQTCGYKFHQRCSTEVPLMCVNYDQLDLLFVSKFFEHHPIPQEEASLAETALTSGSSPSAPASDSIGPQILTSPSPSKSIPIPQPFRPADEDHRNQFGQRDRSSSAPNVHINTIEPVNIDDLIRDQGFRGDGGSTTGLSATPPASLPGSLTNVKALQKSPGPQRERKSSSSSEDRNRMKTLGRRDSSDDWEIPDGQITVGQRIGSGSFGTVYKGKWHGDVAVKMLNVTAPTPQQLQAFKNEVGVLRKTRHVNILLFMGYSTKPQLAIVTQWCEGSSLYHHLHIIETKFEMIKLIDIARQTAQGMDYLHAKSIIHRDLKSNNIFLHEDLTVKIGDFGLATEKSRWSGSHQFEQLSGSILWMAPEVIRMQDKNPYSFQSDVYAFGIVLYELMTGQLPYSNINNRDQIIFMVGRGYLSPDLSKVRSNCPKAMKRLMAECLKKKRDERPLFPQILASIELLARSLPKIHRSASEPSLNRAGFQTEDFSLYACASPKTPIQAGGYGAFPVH

Row | DC50 [1] [nM] | Dmax [2] [%] | DC50 (A375 (BRAF V600E, Class 1), DC50 at 50% degradation) [nM] | Dmax (A375 (BRAF V600E, Class 1), observed Dmax, % protein degraded relative to DMSO control) [%] | Compound
1 | 10 to 50 | 30 to 70 | – | – | CCCS(=O)(=O)Nc1cccc(-c2nc(C(C)(C)C)sc2-c2ccnc(Nc3cccc(C4CCN(CC[C@H]5CCN(c6ccc(C7CCC(=O)NC7=O)cn6)C5)CC4)c3)n2)c1F (mixture of isomers) [Compound 74, N-{3-[2-tert-butyl-5-(2-{[3-(1-{2-[(3S)-1-{5-[(3RS)-2,6-dioxopiperidin-3-yl]pyridin-2-yl}pyrrolidin-3-yl]ethyl}piperidin-4-yl)phenyl]amino}pyrimidin-4-yl)-1,3-thiazol-4-yl]-2-fluorophenyl}propane-1-sulfonamide]
2 | 10 to 50 | > 70 | – | – | CCCS(=O)(=O)Nc1cccc(-c2nc(C(C)(C)C)sc2-c2ccnc(Nc3cnn(C4CCN(CC[C@@H]5CCN(c6ccc(C7CCC(=O)NC7=O)cn6)C5)CC4)c3)n2)c1F (mixture of isomers) [Compound 78, N-{3-[2-tert-butyl-5-(2-{[1-(1-{2-[(3R)-1-{5-[(3RS)-2,6-dioxopiperidin-3-yl]pyridin-2-yl}pyrrolidin-3-yl]ethyl}piperidin-4-yl)-1H-pyrazol-4-yl]amino}pyrimidin-4-yl)-1,3-thiazol-4-yl]-2-fluorophenyl}propane-1-sulfonamide]
3 | 10 to 50 | > 70 | – | – | CCCS(=O)(=O)Nc1cccc(-c2nc(C(C)(C)C)sc2-c2ccnc(Nc3cnn(CC4CCN(CC[C@@H]5CCN(c6ccc(C7CCC(=O)NC7=O)cn6)C5)CC4)c3)n2)c1F (mixture of isomers) [Compound 81, N-(3-{2-tert-butyl-5-[2-({1-[(1-{2-[(3R)-1-{5-[(3RS)-2,6-dioxopiperidin-3-yl]pyridin-2-yl}pyrrolidin-3-yl]ethyl}piperidin-4-yl)methyl]-1H-pyrazol-4-yl}amino)pyrimidin-4-yl]-1,3-thiazol-4-yl}-2-fluorophenyl)propane-1-sulfonamide]
4 | 10 to 50 | 30 to 70 | – | – | CCCS(=O)(=O)Nc1cccc(-c2nc(C(C)(C)C)sc2-c2ccnc(Nc3cccc(C4CCN(C(=O)[C@@H]5CCN(c6ccc(C7CCC(=O)NC7=O)cn6)C5)CC4)c3)n2)c1F (mixture of isomers) [Compound 102, N-[3-(2-tert-butyl-5-{2-[(3-{1-[(3R)-1-{5-[(3RS)-2,6-dioxopiperidin-3-yl]pyridin-2-yl}pyrrolidine-3-carbonyl]piperidin-4-yl}phenyl)amino]pyrimidin-4-yl}-1,3-thiazol-4-yl)-2-fluorophenyl]propane-1-sulfonamide]
5 | 50 to 500 | 30 to 70 | – | – | CCCS(=O)(=O)Nc1cccc(-c2nc(C(C)(C)C)sc2-c2ccnc(Nc3ccc(C4CCN(C(=O)C[C@@H]5CCN(c6ccc(C7CCC(=O)NC7=O)cc6)C5)CC4)cc3)n2)c1F (mixture of isomers) [Compound 166, N-{3-[2-tert-butyl-5-(2-{[4-(1-{2-[(3S)-1-{4-[(3RS)-2,6-dioxopiperidin-3-yl]phenyl}pyrrolidin-3-yl]acetyl}piperidin-4-yl)phenyl]amino}pyrimidin-4-yl)-1,3-thiazol-4-yl]-2-fluorophenyl}propane-1-sulfonamide]
6 | 50 to 500 | 30 to 70 | – | – | CCCS(=O)(=O)Nc1cccc(-c2nc(C(C)(C)C)sc2-c2ccnc(NC3CC4(C3)CN(CC[C@H]3CCN(c5ccc(C6CCC(=O)NC6=O)cn5)C3)C4)n2)c1F (mixture of isomers) [Compound 172, N-[3-(2-tert-butyl-5-{2-[(2-{2-[(3S)-1-{5-[(3RS)-2,6-dioxopiperidin-3-yl]pyridin-2-yl}pyrrolidin-3-yl]ethyl}-2-azaspiro[3.3]heptan-6-yl)amino]pyrimidin-4-yl}-1,3-thiazol-4-yl)-2-fluorophenyl]propane-1-sulfonamide]

Further lines, the molecule ahead of its results:

Row | Compound | DC50 [1] [nM] | Dmax [2] [%] | DC50 (A375 (BRAF V600E, Class 1), DC50 at 50% degradation) [nM] | Dmax (A375 (BRAF V600E, Class 1), observed Dmax, % protein degraded relative to DMSO control) [%]
7 | CCCS(=O)(=O)Nc1cccc(-c2nc(C(C)(C)C)sc2-c2ccnc(Nc3cccc(OC4CCN(C(=O)C[C@H]5CCN(c6ccc(C7CCC(=O)NC7=O)cc6)C5)CC4)c3)n2)c1F (mixture of isomers) [Compound 91, N-(3-{2-tert-butyl-5-[2-({3-[(1-{2-[(3R)-1-{4-[(3RS)-2,6-dioxopiperidin-3-yl]phenyl}pyrrolidin-3-yl]acetyl}piperidin-4-yl)oxy]phenyl}amino)pyrimidin-4-yl]-1,3-thiazol-4-yl}-2-fluorophenyl)propane-1-sulfonamide] | 50 to 500 | 30 to 70 | – | –
8 | CCCS(=O)(=O)Nc1cccc(-c2nc(C(C)(C)C)sc2-c2ccnc(Nc3cnn(C4CCN(C(=O)C[C@@H]5CCN(c6ccc(C7CCC(=O)NC7=O)cc6)C5)CC4)c3)n2)c1F (mixture of isomers) [Compound 105, N-{3-[2-tert-butyl-5-(2-{[1-(1-{2-[(3S)-1-{4-[(3RS)-2,6-dioxopiperidin-3-yl]phenyl}pyrrolidin-3-yl]acetyl}piperidin-4-yl)-1H-pyrazol-4-yl]amino}pyrimidin-4-yl)-1,3-thiazol-4-yl]-2-fluorophenyl}propane-1-sulfonamide] | > 500 | 30 to 70 | – | –
9 | CCCS(=O)(=O)Nc1cccc(-c2nc(C(C)(C)C)sc2-c2ccnc(Nc3cnn(C4CCN(C(=O)[C@@H]5CCN(c6ccc(C7CCC(=O)NC7=O)cn6)C5)CC4)c3)n2)c1F (mixture of isomers) [Compound 106, N-[3-(2-tert-butyl-5-{2-[(1-{1-[(3R)-1-{5-[(3RS)-2,6-dioxopiperidin-3-yl]pyridin-2-yl}pyrrolidine-3-carbonyl]piperidin-4-yl}-1H-pyrazol-4-yl)amino]pyrimidin-4-yl}-1,3-thiazol-4-yl)-2-fluorophenyl]propane-1-sulfonamide] | 50 to 500 | 30 to 70 | – | –
10 | CCCS(=O)(=O)Nc1cccc(-c2nc(C(C)(C)C)sc2-c2ccnc(Nc3ccc4c(c3)CCN(C(=O)[C@@H]3CCN(c5ccc(C6CCC(=O)NC6=O)cn5)C3)C4)n2)c1F (mixture of isomers) [Compound 121, N-(3-{2-tert-butyl-5-[2-({2-[(3R)-1-{5-[(3RS)-2,6-dioxopiperidin-3-yl]pyridin-2-yl}pyrrolidine-3-carbonyl]-1,2,3,4-tetrahydroisoquinolin-6-yl}amino)pyrimidin-4-yl]-1,3-thiazol-4-yl}-2-fluorophenyl)propane-1-sulfonamide] | 50 to 500 | 30 to 70 | – | –
11 | CCCS(=O)(=O)Nc1cccc(-c2nc(C(C)(C)C)sc2-c2ccnc(Nc3ccc(C4CCN(C(=O)C[C@@H]5CCN(c6ccc7c(c6)n(C)c(=O)n7C6CCC(=O)NC6=O)C5)CC4)cc3)n2)c1F (mixture of isomers) [Compound 162, N-{3-[2-tert-butyl-5-(2-{[4-(1-{2-[(3S)-1-{1-[(3RS)-2,6-dioxopiperidin-3-yl]-3-methyl-2-oxo-2,3-dihydro-1H-1,3-benzodiazol-5-yl}pyrrolidin-3-yl]acetyl}piperidin-4-yl)phenyl]amino}pyrimidin-4-yl)-1,3-thiazol-4-yl]-2-fluorophenyl}propane-1-sulfonamide] | 10 to 50 | 30 to 70 | – | –
12 | CCCS(=O)(=O)Nc1cccc(-c2nc(C3CCC4(CC3)CCN(C(=O)C[C@H]3CCN(c5ccc(C6CCC(=O)NC6=O)cc5)C3)CC4)sc2-c2ccnc(N)n2)c1F (mixture of isomers) [Compound 253, N-{3-[5-(2-aminopyrimidin-4-yl)-2-(3-{2-[(3R)-1-{4-[(3RS)-2,6-dioxopiperidin-3-yl]phenyl}pyrrolidin-3-yl]acetyl}-3-azaspiro[5.5]undecan-9-yl)-1,3-thiazol-4-yl]-2-fluorophenyl}propane-1-sulfonamide] | – | – | 10 to 50 | 30 to 70
